Laboratory results taken from patent publication US10485792B2, “Sustained release delivery systems for the prevention and treatment of head and neck cancers” (HADASIT MEDICAL RESEARCH SERVICES & DEVELOPMENT LIMITED, priority 2009, dated 2019).

How the values were obtained:
Oral Lichen Planus = settings: cited from earlier work
[1] = Rapamycin stability in solution; assay type: physicochemical; settings: known concentration solutions at 37° C. for 24 hours
Method: Rapamycin stability was evaluated by sampling known concentration solutions at 37° C. for 24 hours.

Rapamycin stability [1]: No stability problems were observed
SMILES: CO[C@H]1C[C@@H]2CC[C@@H](C)[C@@](O)(O2)C(=O)C(=O)N2CCCC[C@H]2C(=O)O[C@H]([C@H](C)C[C@@H]2CC[C@@H](O)[C@H](OC)C2)CC(=O)[C@H](C)/C=C(\C)[C@@H](O)[C@@H](OC)C(=O)[C@H](C)C[C@H](C)/C=C/C=C/C=C/1C [Rapamycin]
Local side effect after first application (Oral Lichen Planus; direct topical application to the diseased regions): tingling or burning sensations were encountered
Blood levels (Oral Lichen Planus; direct topical application): negligible
Systemic adverse effects (Oral Lichen Planus; direct topical application): no systemic adverse effects were encountered
